# Measurements reported in paper PMC7278776, “Multidrug Resistance Modulation Activity of Silybin Derivatives and Their Anti-Inflammatory Potential” (Antioxidants, 2020).
# Test system: not listed separately
# Assay: ORAC (oxygen radical absorption capacity) assay
# Conditions: fluorescein/AAPH; read-out: ORAC, concentration necessary to halve the fluorescence response (IC50)
# Method: Antioxidant capacity of samples was determined by ORAC (oxygen radical absorption capacity) and CAA (cellular antioxidant activity) assays. ORAC assay was realized by the previously described protocol. Briefly, 50 µL of the fluorescein solution (1.6 µg/mL in phosphate-buffered saline (PBS), pH 7.4) was added by a dispenser (MultiFlo Microplate Dispenser, BioTek Instrument, Winooski, VT, USA) into each well of a 96-well plate. Subsequently, 2 µL of tested compound in the concentration range 1.25–20 µM and 23 µL of PBS were added to the wells. The plate was incubated for 15 min at 37 °C and then 25 µL of AAPH (60 mg/mL) was added to each well. AAPH was replaced with PBS for the negative control. Immediately, the fluorescence was recorded by the microplate reader (SpectraMax i3 Multi-Mode Detection Platform, Molecular Devices, San Jose, CA, USA) for 2 h in 5 min steps (excitation/emission 485/535 nm).
row,SMILES,IC50 [µM]
1,"COc1cc([C@H]2Oc3cc([C@H]4Oc5cc(O)cc(O)c5C(=O)[C@@H]4O)ccc3O[C@@H]2CO)ccc1O [Silybin A, silybin A]",6.6 ± 0.3

# Test system: nitric oxide (NO) production by LPS-stimulated macrophages (RAW 264.7)
# Assay: NO production by LPS-stimulated macrophages (Griess)
# Type: cell-based, mouse
# Conditions: Mus musculus, RAW264.7; RAW 264.7, LPS 1 µg/mL, 24 h; read-out: NO Production, concentration necessary to halve NO production (IC50)
# Method: Immunomodulatory effect of tested compounds was determined as their ability to decrease nitric oxide (NO) production by LPS-stimulated macrophages (RAW 264.7, Sigma-Aldrich). Briefly, the cells were seeded into the 96-well plate at a density of 1 × 10^6 cells/mL in DMEM medium (supplemented with 2 mM L-glutamine and 1 × antibiotic antimycotic solution). After 48 h, the cells were washed with PBS. The MEM medium enriched with LPS (1 µg/mL) was added to the wells, together with the samples in the concentration range of 6.25–100 µM at a final volume of 100 µL. Indomethacin, a non-steroidal anti-inflammatory drug, was tested as a positive control in the concentration range 6.25–100 µM. After 24 h, the medium was used for the quantification of NO and inflammatory cytokines.
# After 15 min, absorbance was recorded at 540 nm.
row,SMILES,IC50 [µM]
1,"COc1cc([C@H]2Oc3cc([C@H]4Oc5cc(O)cc(O)c5C(=O)[C@@H]4O)ccc3O[C@@H]2CO)ccc1O [Silybin A, silybin A]",26.7 ± 1.6

# Molecular target: acetylcholinesterase (Homo sapiens, UniProt P22303)
# Sequence (P22303 32-614, species assumed): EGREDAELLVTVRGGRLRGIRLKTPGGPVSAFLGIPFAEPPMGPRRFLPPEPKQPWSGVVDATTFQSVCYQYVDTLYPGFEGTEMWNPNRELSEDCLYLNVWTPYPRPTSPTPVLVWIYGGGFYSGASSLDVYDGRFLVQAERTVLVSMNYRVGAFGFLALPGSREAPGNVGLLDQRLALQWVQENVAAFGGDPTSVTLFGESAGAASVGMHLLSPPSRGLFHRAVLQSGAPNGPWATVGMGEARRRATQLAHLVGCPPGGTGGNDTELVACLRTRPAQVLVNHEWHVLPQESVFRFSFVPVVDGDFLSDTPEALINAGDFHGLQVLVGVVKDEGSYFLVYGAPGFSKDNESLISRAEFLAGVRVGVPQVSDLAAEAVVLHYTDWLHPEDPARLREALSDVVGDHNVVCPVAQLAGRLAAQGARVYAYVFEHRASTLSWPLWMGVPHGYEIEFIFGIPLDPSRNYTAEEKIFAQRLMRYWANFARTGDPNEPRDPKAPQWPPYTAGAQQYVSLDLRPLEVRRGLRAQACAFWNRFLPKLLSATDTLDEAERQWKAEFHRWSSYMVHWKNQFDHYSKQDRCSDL
# Assay: Acetylcholinesterase activity, Ellman colorimetric method
# Type: biochemical
# Conditions: not given
# Method: The activity of acetylcholinesterase was measured by the Ellman colorimetric method. A stock solution of acetylcholinesterase was prepared in PBS (0.057 U/mL), 100× diluted and stored in a freezer (−20 °C). Further, the solution of DTNB (5,5′-dithio-bis-2-nitrobenzoic acid, 50 µM) and ATC ([…], 50 µM) was prepared. […] Afterwards, 10 µL of DNTB and ATC solution was added, and the reaction was launched. After the addition of reagents, the absorbance at 412 nm was recorded for 10 min every minute.
row,SMILES,IC50 [µM]
1,"COc1cc([C@H]2Oc3cc([C@H]4Oc5cc(O)cc(O)c5C(=O)[C@@H]4O)ccc3O[C@@H]2CO)ccc1O [Silybin A, silybin A]",181 ± 6.1

# Test system: ABCA1
# Assay: ABCA1 mRNA expression (real-time PCR)
# Type: cell-based, human
# Conditions: A2780/DOX, 10 µM combined with doxorubicin at IC25, 48 h
# Method: (§1) The A2780/DOX cell line was seeded into 5 cm Petri dishes with DMEM medium at 1 × 10^5 cell/mL. After 24 h, the dishes were washed with PBS and new DMEM medium supplemented with doxorubicin (at concentration equal to IC25) and samples (10 µM) were added. After 48 h of treatment, the cells were washed with PBS and harvested using the standard trypsin-EDTA procedure. The harvested cells were centrifuged (3200× g; 10 min, 4 °C). The supernatant was discarded, and the pellets were washed with 1.5 mL of cooled PBS (5400× g; 10 min, 4 °C). The washing step was repeated with 1 mL of PBS and the cells were centrifuged again (10,000× g; 3 min, 4 °C). Afterwards, the pellets were resuspended in 1 mL of Trizol (Invitrogen, Carlsbad, CA, USA) and transferred into pre-cooled RNase-free microfuge tubes. The samples were stored at −80 °C.
# (§2) A Quant-iT RiboGreen RNA Assay Kit (Invitrogen) was used to determine the RNA concentration using the Infinite M200 plate reader (Tecan, Männedor, Switzerland). The cDNA was prepared from 0.5 µg of total RNA using a RevertAid First Strand Synthesis cDNA Kit (MBI Fermentas, Vilnius, Lithuania). The amplification of the ubiquitin C gene fragment was used to determine the quality of cDNA.
# (§3) The experiment was performed using the ViiA7 Real-Time polymerase chain reaction (PCR) System (Life Technologies, Camarillo, CA, USA) with a 384-well block. Before quantitative real-time PCR, the master mix was prepared by mixing 2 µL of 8 × diluted cDNA, 1.75 µL of RNase free water, 1 µL of 5 × HotFIREPol Probe quantitative PCR Mix Plus (Solis Biodyne, Tartu, Estonia) and 0.25 µL of specific 20 × TaqMan Gene Expression Assay (Life Technologies), giving 5 µL of final reaction volume. Cycling parameters were: initial hold at 50 °C for 2 min and denaturation at 95 °C for 10 min, followed by 45 cycles consisting of denaturation at 95 °C for 15 s and annealing/extension at 60 °C for 1 min. After each extension phase, the fluorescence values were acquired. Duplicate samples were used for measurement and samples with a standard deviation of duplicates > 1.0 cycle threshold (Ct) were re-analyzed. The real time PCR procedure was maintained according to MIQE (Minimum information for publication of quantitative real-time PCR experiments) guidelines. The software REST 2009 (Qiagen, Hilden, Germany) served to compare relative transcript levels of genes in the cell line.
row,SMILES,ABCA1 Expression Difference
1,"COc1cc([C@H]2Oc3cc([C@H]4Oc5cc(O)cc(O)c5C(=O)[C@@H]4O)ccc3O[C@@H]2CO)ccc1O [Silybin A, silybin A]",2.702

# Test system: ABCB2
# Assay: ABCB2 mRNA expression (real-time PCR)
# Type: cell-based, human
# Conditions: A2780/DOX, 10 µM combined with doxorubicin at IC25, 48 h
# Method: as §1, §2, §3
row,SMILES,ABCB2 Expression Difference
1,"COc1cc([C@H]2Oc3cc([C@H]4Oc5cc(O)cc(O)c5C(=O)[C@@H]4O)ccc3O[C@@H]2CO)ccc1O [Silybin A, silybin A]",17.975

# Test system: ABCC1 (MRP1)
# Assay: ABCC1 mRNA expression (real-time PCR)
# Type: cell-based, human
# Conditions: A2780/DOX, 10 µM combined with doxorubicin at IC25, 48 h
# Method: as §1, §2, §3
row,SMILES,ABCC1 Expression Difference
1,"COc1cc([C@H]2Oc3cc([C@H]4Oc5cc(O)cc(O)c5C(=O)[C@@H]4O)ccc3O[C@@H]2CO)ccc1O [Silybin A, silybin A]",1.711

# Test system: ABCD2
# Assay: ABCD2 mRNA expression (real-time PCR)
# Type: cell-based, human
# Conditions: A2780/DOX, 10 µM combined with doxorubicin at IC25, 48 h
# Method: as §1, with “After 24 h, the dishes were washed with PBS and new DMEM medium supplemented with doxorubicin (at concentration equal to IC25) and samples (10 µM) were added.” left out
# as §2, §3
SMILES,ABCD2 Expression Difference,ABCD2 Treated vs. Untreated
"COc1cc([C@H]2Oc3cc([C@H]4Oc5cc(O)cc(O)c5C(=O)[C@@H]4O)ccc3O[C@@H]2CO)ccc1O [Silybin A, silybin A]",0.426,DOWN

# Same assay, conditions: A2780/DOX, 10 µM, 48 h, without doxorubicin
row,SMILES,ABCD2 Expression Difference
1,"COc1cc([C@H]2Oc3cc([C@H]4Oc5cc(O)cc(O)c5C(=O)[C@@H]4O)ccc3O[C@@H]2CO)ccc1O [Silybin A, silybin A]",1.063

# Test system: ABCG2 (BCRP)
# Assay: ABCG2 mRNA expression (real-time PCR)
# Type: cell-based, human
# Conditions: A2780/DOX, 10 µM combined with doxorubicin at IC25, 48 h
# Method: as §1, with “After 24 h, the dishes were washed with PBS and new DMEM medium supplemented with doxorubicin (at concentration equal to IC25) and samples (10 µM) were added.” left out
# as §2, §3
row,SMILES,ABCG2 Expression Difference
1,"COc1cc([C@H]2Oc3cc([C@H]4Oc5cc(O)cc(O)c5C(=O)[C@@H]4O)ccc3O[C@@H]2CO)ccc1O [Silybin A, silybin A]",2.415

# Test system: ABCG4
# Assay: ABCG4 mRNA expression (real-time PCR)
# Type: cell-based, human
# Conditions: A2780/DOX, 10 µM combined with doxorubicin at IC25, 48 h
# Method: as §1, with “After 24 h, the dishes were washed with PBS and new DMEM medium supplemented with doxorubicin (at concentration equal to IC25) and samples (10 µM) were added.” left out
# as §2, §3
row,SMILES,ABCG4 Expression Difference
1,"COc1cc([C@H]2Oc3cc([C@H]4Oc5cc(O)cc(O)c5C(=O)[C@@H]4O)ccc3O[C@@H]2CO)ccc1O [Silybin A, silybin A]",4.751

# Same assay, conditions: A2780/DOX, 10 µM, 48 h, without doxorubicin
row,SMILES,ABCG4 Expression Difference
1,"COc1cc([C@H]2Oc3cc([C@H]4Oc5cc(O)cc(O)c5C(=O)[C@@H]4O)ccc3O[C@@H]2CO)ccc1O [Silybin A, silybin A]",1.185
